What all share (experiment): NCI-60 cell line screen, 48 h
Experiment [1] deals with 786-0.
The subject of experiment [2] is ACHN.
Experiment [3] deals with CAKI-1.
Experiment [4] has as its system CCRF-CEM.
Experiment [5] deals with HCT-116.
Experiment [6] concerns HL-60.
Experiment [7] relates to HOP-62.
For experiment [8], the system named is HOP-92.
The test system of experiment [9] is Hs-578T.
In experiment [10] the test system is IGROV-1.
Experiment [11] has as its system K562.
Experiment [12] concerns LOX IMVI.
Experiment [13] concerns MDA-N.
The subject of experiment [14] is OVCAR-3.
The test system of experiment [15] is OVCAR-5.
The subject of experiment [16] is RPMI-8226.
The test system of experiment [17] is SF-539.
In experiment [18] the test system is SK-MEL-28.
The test system of experiment [19] is SN12C.
The test system of experiment [20] is U-251.

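Five concentrations, 48 hours, 96-well plates. GI50 marks 50% less growth.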 The source made the active and inactive calls. Rule as the data show it: active = GI50 up to about 1.1 µM and inactive = higher. A value given as a limit tells only on which side of the number the result lay.

Take `COC1CCC(OS(C)(=O)=O)C(C)O1` (stereo not given): the GI50 in experiment [1], in [2], in [3], in experiment [4], in experiment [5] and in [6] was > 10 µM (inactive) in each case. In addition, the GI50 in experiment [7] was > 10 µM (inactive); in experiment [8] it was 5.89 µM (inactive); in experiment [9], > 10 µM (inactive); in [10], > 10 µM (inactive); in experiment [11], > 10 µM (inactive); in experiment [12], > 10 µM (inactive). In addition, the GI50 in experiment [13], in experiment [14], in experiment [15], in [16], in experiment [17] and in [18] was > 10 µM (inactive) throughout. In addition, the GI50 in [19] and in experiment [20] was > 10 µM (inactive) throughout.
For `COc1cc(C(=O)Oc2c(C(C)=O)sc3c2c(=O)n(-c2ccccc2)c(=S)n3-c2ccccc2)cc(OC)c1OC`, the GI50 is 19.6 µM (inactive) in experiment [1]; 16.6 µM (inactive) in experiment [2]; 33.9 µM (inactive) in experiment [3]; 15.3 µM (inactive) in experiment [4]; 18.1 µM (inactive) in experiment [5]; 24.7 µM (inactive) in [6]. The GI50 in [7] was 24.4 µM (inactive); in experiment [8], 19.3 µM (inactive); in experiment [9] it was 19.4 µM (inactive); in experiment [10], 21 µM (inactive); in experiment [11], 33.6 µM (inactive); in experiment [12] it was 18.7 µM (inactive). Besides, the GI50 is 22.8 µM (inactive) in experiment [13]; 18.2 µM (inactive) in experiment [14]; 17.5 µM (inactive) in [15]; 27 µM (inactive) in experiment [16]; 11.6 µM (inactive) in experiment [17]; 19.2 µM (inactive) in experiment [18]. Also, the GI50 is 11.9 µM (inactive) in experiment [19] and 20.7 µM (inactive) in experiment [20].
Consider `CCOC(=O)/C(C#N)=C/c1coc2cc(C)cc(C)c2c1=O`, for which the GI50 in experiment [1], in experiment [2], in [3], in experiment [4], in experiment [5] and in experiment [6] was > 100 µM (inactive) throughout. Also, the GI50 in [7] was > 100 µM (inactive); in experiment [8] it was 95.1 µM (inactive); in experiment [9], > 100 µM (inactive); in experiment [10], > 100 µM (inactive); in [11], > 100 µM (inactive); in [12], > 100 µM (inactive). Moreover, the GI50 in [13] is > 100 µM (inactive); in experiment [14] it was 64.9 µM (inactive); in experiment [15] it was > 100 µM (inactive); in [16], > 100 µM (inactive); in [17], > 100 µM (inactive); in experiment [18], > 100 µM (inactive). Moreover, the GI50 in experiment [19] and in experiment [20] was > 100 µM (inactive) each time.
Turning to `C=CC1ON(C)CCc2cc(OC)c(OC)cc21` (stereo not given), the GI50 in experiment [1], in experiment [2], in [3], in [4], in [5] and in [6] was > 100 µM (inactive) throughout. For the same compound, the GI50 in experiment [7], in experiment [8], in experiment [9], in experiment [10], in experiment [11] and in experiment [12] was > 100 µM (inactive) in each case. The GI50 in [13], in experiment [14], in [15], in [16], in experiment [17] and in [18] was > 100 µM (inactive) each time. Also, the GI50 in [19] and in [20] was > 100 µM (inactive) throughout.
As for `COc1ccc(C[C@@H]2NC[C@@H](O)[C@@H]2OC(C)=O)cc1`, the GI50 in experiment [1] is 0.0219 µM (active); in [2], 0.011 µM (active); in experiment [3], 0.0251 µM (active); in [4], 0.00899 µM (active); in [5], 0.0103 µM (active); in experiment [6] it was 0.00374 µM (active). Also, the GI50 in experiment [7] is 0.0214 µM (active); in experiment [8] it was 0.00618 µM (active); in experiment [9], 0.0284 µM (active); in [10], 0.0435 µM (active); in [11] it was 0.0104 µM (active); in experiment [12], 0.00403 µM (active). The GI50 is 0.0212 µM (active) in experiment [13]; 0.0256 µM (active) in [14]; 0.0198 µM (active) in [15]; 0.0296 µM (active) in experiment [16]; 0.0234 µM (active) in experiment [17]; 0.0206 µM (active) in experiment [18]. Also, the results for the GI50 in experiment [19] and in [20] were 0.0229 µM (active) and 0.0173 µM (active), respectively.
Turning to `CC(O)CCCOC(c1ccccc1)(c1ccccc1)c1ccccc1` (stereo not given), the GI50 was 16.5 µM (inactive) in [1]; 14.6 µM (inactive) in experiment [2]; 16 µM (inactive) in experiment [3]; 23.3 µM (inactive) in [4]; 13.8 µM (inactive) in experiment [5]; 17.6 µM (inactive) in experiment [6]. Besides, the GI50 was 17.3 µM (inactive) in [7]; 12.6 µM (inactive) in experiment [8]; 18.7 µM (inactive) in experiment [9]; 15.7 µM (inactive) in experiment [10]; 22.9 µM (inactive) in [11]; 15.2 µM (inactive) in [12]. In addition, the GI50 was 16.8 µM (inactive) in experiment [13]; 14.2 µM (inactive) in experiment [14]; 16.7 µM (inactive) in experiment [15]; 15.2 µM (inactive) in [16]; 17.2 µM (inactive) in [17]; 16.4 µM (inactive) in [18]. The GI50 in experiment [19] is 16.7 µM (inactive); in experiment [20], 16.4 µM (inactive).
On to `CC(C)(C)OC(=O)NC1CC2(C=C(Br)C(=O)C(Br)=C2)OC1=O` (stereo not given), for which the GI50 in experiment [1] was 2.72 µM (inactive); in experiment [2], 4.23 µM (inactive); in experiment [3], 3.48 µM (inactive); in [4] it was 0.165 µM (active); in [5], 3.28 µM (inactive); in experiment [6], 2.47 µM (inactive). Further, the GI50 in experiment [7] was 18.7 µM (inactive); in experiment [8], 12.5 µM (inactive); in experiment [9] it was 22 µM (inactive); in experiment [10], 16.4 µM (inactive); in [11], 2.56 µM (inactive); in [12] it was 13 µM (inactive). Besides, the GI50 is 5.74 µM (inactive) in [13]; 10.4 µM (inactive) in experiment [14]; 18.3 µM (inactive) in experiment [15]; 0.968 µM (active) in experiment [16]; 18.7 µM (inactive) in experiment [17]; 21.1 µM (inactive) in experiment [18]. Also, the GI50 in [19] was 7.33 µM (inactive); in experiment [20], 17.4 µM (inactive).
Consider `C/C=C/C(O)P(=O)(OC)OC` (stereo not given), for which the GI50 in experiment [1] was 0.173 µM (active); in [2] it was 0.344 µM (active); in experiment [3], 0.589 µM (active); in experiment [4], 0.227 µM (active); in experiment [5], 0.254 µM (active); in [6], 0.256 µM (active). Besides, the GI50 in experiment [7] is 0.628 µM (active); in experiment [8] it was < 0.0385 µM (active); in [9], 0.213 µM (active); in experiment [10], 0.275 µM (active); in experiment [11] it was 0.318 µM (active); in experiment [12] it was 0.187 µM (active). In addition, the GI50 is 0.217 µM (active) in experiment [13]; 0.255 µM (active) in [14]; 0.284 µM (active) in [15]; 0.162 µM (active) in experiment [16]; 0.279 µM (active) in experiment [17]; 0.32 µM (active) in [18]. Further, the GI50 in experiment [19] is 0.4 µM (active); in [20], 0.307 µM (active).
Regarding `OCCN(CCO)c1ccc2c(C(F)(F)F)cc(C(F)(F)F)nc2n1`, the GI50 in experiment [1], in [2], in experiment [3], in experiment [4], in experiment [5] and in experiment [6] was > 100 µM (inactive) each time. For the same compound, the GI50 in [7], in experiment [8], in experiment [9], in [10], in [11] and in [12] was > 100 µM (inactive) in each case. In addition, the GI50 in [13], in experiment [14], in experiment [15], in experiment [16], in experiment [17] and in experiment [18] was > 100 µM (inactive) in each case. Besides, the GI50 in experiment [19] and in experiment [20] was > 100 µM (inactive) throughout.
Consider `Cc1cccc(/C=N/NC(=S)NCc2ccccn2)n1`, for which the GI50 in experiment [1] was 17.9 µM (inactive); in experiment [2] it was 10.4 µM (inactive); in experiment [3], 26.4 µM (inactive); in experiment [4] it was 24.2 µM (inactive); in [5], 29.4 µM (inactive); in experiment [6], 23.4 µM (inactive). The GI50 in experiment [7] is 22.2 µM (inactive); in [8] it was 25.9 µM (inactive); in [9] it was > 93.5 µM (inactive); in experiment [10], 24 µM (inactive); in experiment [11] it was 36.1 µM (inactive); in experiment [12], 14.7 µM (inactive). The GI50 was 47.2 µM (inactive) in experiment [13]; 74.5 µM (inactive) in [14]; > 77.1 µM (inactive) in experiment [15]; 44.6 µM (inactive) in experiment [16]; 23.4 µM (inactive) in experiment [17]; 45.8 µM (inactive) in [18]. The GI50 is 30.6 µM (inactive) in experiment [19] and 20.7 µM (inactive) in [20].

These data come from ChEMBL document CHEMBL1201862, “PubChem BioAssay data set” (2004).
